Measured values from PubChem BioAssay (NCI).
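Interpolation was linear, between the two tested concentrations surrounding the appropriate level; five concentrations were tested over 48 hours in 96-well plates. Abbreviation: GI50, concentration required for 50% inhibition of growth. The concentration for full growth arrest is given as TGI.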

How the values were obtained:
Experiment in all cases: DTP human tumour cell line panel, 48 h
UACC-62 melanoma = system: UACC-62 melanoma
CCRF-CEM leukemia = system: CCRF-CEM leukemia
MCF7 breast = system: MCF7 breast
MDA-MB-231 breast = system: MDA-MB-231 breast
NCI/ADR-RES ovarian = system: NCI/ADR-RES ovarian
SR leukemia = system: SR leukemia
BT-549 breast = system: BT-549 breast
MALME-3M melanoma = system: MALME-3M melanoma
SF-268 CNS = system: SF-268 CNS
HOP-92 NSCLC = system: HOP-92 NSCLC
RXF 393 renal = system: RXF 393 renal
MDA-MB-435 = system: MDA-MB-435
M14 melanoma = system: M14 melanoma
A498 renal = system: A498 renal
SK-MEL-5 melanoma = system: SK-MEL-5 melanoma
NCI-H23 lung = system: NCI-H23 lung
SNB-75 CNS = system: SNB-75 CNS
SW-620 colon = system: SW-620 colon
ACHN renal = system: ACHN renal
OVCAR-8 ovarian = system: OVCAR-8 ovarian
U251 CNS = system: U251 CNS
NCI-H226 lung = system: NCI-H226 lung
HOP-62 NSCLC = system: HOP-62 NSCLC
HCT-15 colon = system: HCT-15 colon
KM12 colon = system: KM12 colon
HCT-116 colon = system: HCT-116 colon
786-0 renal = system: 786-0 renal
DU-145 prostate = system: DU-145 prostate
HCC-2998 colon = system: HCC-2998 colon
UO-31 renal = system: UO-31 renal
OVCAR-5 ovarian = system: OVCAR-5 ovarian
NCI-H460 lung = system: NCI-H460 lung
SN12C renal = system: SN12C renal
EKVX NSCLC = system: EKVX NSCLC
UACC-257 melanoma = system: UACC-257 melanoma
SNB-19 CNS = system: SNB-19 CNS
LOX IMVI melanoma = system: LOX IMVI melanoma
TK-10 renal = system: TK-10 renal
IGROV1 ovarian = system: IGROV1 ovarian
SK-MEL-2 melanoma = system: SK-MEL-2 melanoma
K-562 leukemia = system: K-562 leukemia
CAKI-1 renal = system: CAKI-1 renal
HL-60(TB) leukemia = system: HL-60(TB) leukemia
RPMI-8226 leukemia = system: RPMI-8226 leukemia
OVCAR-3 ovarian = system: OVCAR-3 ovarian
HS 578T breast = system: HS 578T breast
A549 NSCLC = system: A549 NSCLC
SF-539 CNS = system: SF-539 CNS
OVCAR-4 ovarian = system: OVCAR-4 ovarian
COLO 205 colon = system: COLO 205 colon
PC-3 prostate = system: PC-3 prostate
SK-OV-3 ovarian = system: SK-OV-3 ovarian
T-47D breast = system: T-47D breast
SK-MEL-28 melanoma = system: SK-MEL-28 melanoma
NCI-H522 lung = system: NCI-H522 lung
MOLT-4 leukemia = system: MOLT-4 leukemia
HT29 colon = system: HT29 colon
SF-295 CNS = system: SF-295 CNS
MDA-N = system: MDA-N

C[C@@H](COCCC(=O)N1CCN(c2ncc(C(F)(F)F)cn2)CC1)Nc1cn[nH]c(=O)c1C(F)(F)F
GI50 (UACC-62 melanoma): 45.3 µM
TGI (UACC-62 melanoma): > 100 µM
GI50 (CCRF-CEM leukemia): 15 µM
TGI (CCRF-CEM leukemia): > 100 µM
GI50 (MCF7 breast): 31.2 µM
TGI (MCF7 breast): > 100 µM
GI50 (MDA-MB-231 breast): > 100 µM
TGI (MDA-MB-231 breast): > 100 µM
GI50 (NCI/ADR-RES ovarian): > 90.5 µM
TGI (NCI/ADR-RES ovarian): > 100 µM
GI50 (SR leukemia): 4.04 µM
TGI (SR leukemia): > 100 µM
GI50 (BT-549 breast): 0.078 µM
TGI (BT-549 breast): > 100 µM
GI50 (MALME-3M melanoma): > 100 µM
TGI (MALME-3M melanoma): > 100 µM
GI50 (SF-268 CNS): 42.8 µM
TGI (SF-268 CNS): > 100 µM
GI50 (HOP-92 NSCLC): 0.323 µM
TGI (HOP-92 NSCLC): > 65.7 µM
GI50 (RXF 393 renal): 32.8 µM
TGI (RXF 393 renal): > 100 µM
GI50 (MDA-MB-435): > 100 µM
TGI (MDA-MB-435): > 100 µM
GI50 (M14 melanoma): 32.9 µM
TGI (M14 melanoma): > 100 µM
GI50 (A498 renal): 0.0219 µM
GI50 (SK-MEL-5 melanoma): 42.3 µM
TGI (SK-MEL-5 melanoma): > 100 µM
GI50 (NCI-H23 lung): 28.3 µM
TGI (NCI-H23 lung): > 100 µM
GI50 (SNB-75 CNS): 47.8 µM
TGI (SNB-75 CNS): > 100 µM
GI50 (SW-620 colon): 3.84 µM
TGI (SW-620 colon): > 100 µM
GI50 (ACHN renal): 28.3 µM
TGI (ACHN renal): > 100 µM
GI50 (OVCAR-8 ovarian): 32.7 µM
TGI (OVCAR-8 ovarian): > 100 µM
GI50 (U251 CNS): 29.3 µM
TGI (U251 CNS): > 100 µM
GI50 (NCI-H226 lung): > 56.2 µM
TGI (NCI-H226 lung): > 100 µM
GI50 (HOP-62 NSCLC): 23.6 µM
TGI (HOP-62 NSCLC): > 100 µM
GI50 (HCT-15 colon): > 100 µM
TGI (HCT-15 colon): > 100 µM
GI50 (KM12 colon): > 100 µM
TGI (KM12 colon): > 100 µM
GI50 (HCT-116 colon): 40.3 µM
TGI (HCT-116 colon): > 100 µM
GI50 (786-0 renal): 59.1 µM
TGI (786-0 renal): > 100 µM
GI50 (DU-145 prostate): 37.6 µM
TGI (DU-145 prostate): > 100 µM
GI50 (HCC-2998 colon): > 100 µM
TGI (HCC-2998 colon): > 100 µM
GI50 (UO-31 renal): 32.1 µM
TGI (UO-31 renal): > 100 µM
GI50 (OVCAR-5 ovarian): > 100 µM
TGI (OVCAR-5 ovarian): > 100 µM
GI50 (NCI-H460 lung): 18.6 µM
TGI (NCI-H460 lung): > 100 µM
GI50 (SN12C renal): 31.1 µM
TGI (SN12C renal): > 100 µM
GI50 (EKVX NSCLC): > 94 µM
TGI (EKVX NSCLC): > 100 µM
GI50 (UACC-257 melanoma): > 94.4 µM
TGI (UACC-257 melanoma): > 100 µM
GI50 (SNB-19 CNS): 34.2 µM
TGI (SNB-19 CNS): > 100 µM
GI50 (LOX IMVI melanoma): 27.9 µM
TGI (LOX IMVI melanoma): > 100 µM
GI50 (TK-10 renal): > 100 µM
TGI (TK-10 renal): > 100 µM
GI50 (IGROV1 ovarian): 42.2 µM
TGI (IGROV1 ovarian): > 100 µM
GI50 (SK-MEL-2 melanoma): > 100 µM
TGI (SK-MEL-2 melanoma): > 100 µM
GI50 (K-562 leukemia): 36.9 µM
TGI (K-562 leukemia): > 100 µM
GI50 (CAKI-1 renal): 14.1 µM
TGI (CAKI-1 renal): > 100 µM
GI50 (HL-60(TB) leukemia): 16.1 µM
TGI (HL-60(TB) leukemia): > 100 µM
GI50 (RPMI-8226 leukemia): 31.8 µM
TGI (RPMI-8226 leukemia): > 100 µM
GI50 (OVCAR-3 ovarian): 97.5 µM
TGI (OVCAR-3 ovarian): > 100 µM
GI50 (HS 578T breast): 50.7 µM
TGI (HS 578T breast): > 100 µM
GI50 (A549 NSCLC): 45.7 µM
TGI (A549 NSCLC): > 100 µM
GI50 (SF-539 CNS): 16.4 µM
TGI (SF-539 CNS): > 100 µM
GI50 (OVCAR-4 ovarian): 27.8 µM
TGI (OVCAR-4 ovarian): > 100 µM
GI50 (COLO 205 colon): 98.6 µM
TGI (COLO 205 colon): > 100 µM
GI50 (PC-3 prostate): 45.4 µM
TGI (PC-3 prostate): > 100 µM
GI50 (SK-OV-3 ovarian): 53 µM
TGI (SK-OV-3 ovarian): > 100 µM
GI50 (T-47D breast): 33.1 µM
TGI (T-47D breast): > 100 µM
GI50 (SK-MEL-28 melanoma): > 100 µM
TGI (SK-MEL-28 melanoma): > 100 µM
GI50 (NCI-H522 lung): 96.9 µM
TGI (NCI-H522 lung): > 100 µM
GI50 (MOLT-4 leukemia): 22.9 µM
TGI (MOLT-4 leukemia): > 100 µM
GI50 (HT29 colon): > 100 µM
TGI (HT29 colon): > 100 µM
GI50 (SF-295 CNS): 19.5 µM
TGI (SF-295 CNS): > 100 µM

COc1ccccc1C1(C)SCc2nc3ccccc3n21 (centres undefined)
TGI (CCRF-CEM leukemia): > 10 µM
TGI (MCF7 breast): > 10 µM
TGI (NCI/ADR-RES ovarian): > 10 µM
TGI (SR leukemia): > 10 µM
TGI (BT-549 breast): > 10 µM
TGI (MALME-3M melanoma): > 10 µM
TGI (HOP-92 NSCLC): > 10 µM
TGI (MDA-MB-435): > 10 µM
TGI (M14 melanoma): > 10 µM
TGI (NCI-H23 lung): > 10 µM
TGI (SW-620 colon): > 10 µM
TGI (U251 CNS): > 10 µM
TGI (NCI-H226 lung): > 10 µM
TGI (HCT-15 colon): > 10 µM
TGI (KM12 colon): > 10 µM
TGI (DU-145 prostate): > 10 µM
TGI (UO-31 renal): > 10 µM
TGI (OVCAR-5 ovarian): > 10 µM
TGI (SN12C renal): > 10 µM
TGI (SNB-19 CNS): > 10 µM
TGI (LOX IMVI melanoma): > 10 µM
TGI (TK-10 renal): > 10 µM
TGI (SK-MEL-2 melanoma): > 10 µM
TGI (K-562 leukemia): > 10 µM
TGI (HL-60(TB) leukemia): > 10 µM
TGI (OVCAR-3 ovarian): > 10 µM
TGI (OVCAR-4 ovarian): > 10 µM
TGI (PC-3 prostate): > 10 µM
TGI (MDA-N): > 10 µM
TGI (NCI-H522 lung): > 10 µM
TGI (MOLT-4 leukemia): > 10 µM

CN(CC(=O)O)Cc1oc(CO)cc(=O)c1O
TGI (UACC-62 melanoma): > 100 µM
TGI (CCRF-CEM leukemia): > 100 µM
TGI (MCF7 breast): > 100 µM
TGI (MDA-MB-231 breast): > 100 µM
TGI (NCI/ADR-RES ovarian): > 100 µM
TGI (SR leukemia): > 100 µM
TGI (BT-549 breast): > 100 µM
TGI (MALME-3M melanoma): > 100 µM
TGI (SF-268 CNS): > 100 µM
TGI (HOP-92 NSCLC): > 100 µM
TGI (RXF 393 renal): > 100 µM
TGI (MDA-MB-435): > 100 µM
TGI (M14 melanoma): > 100 µM
TGI (A498 renal): > 100 µM
TGI (SK-MEL-5 melanoma): > 100 µM
TGI (NCI-H23 lung): > 100 µM
TGI (SNB-75 CNS): > 100 µM
TGI (SW-620 colon): > 100 µM
TGI (ACHN renal): > 100 µM
TGI (OVCAR-8 ovarian): > 100 µM
TGI (U251 CNS): > 100 µM
TGI (NCI-H226 lung): > 100 µM
TGI (HOP-62 NSCLC): > 100 µM
TGI (HCT-15 colon): > 100 µM
TGI (KM12 colon): > 100 µM
TGI (HCT-116 colon): > 100 µM
TGI (786-0 renal): > 100 µM
TGI (HCC-2998 colon): > 100 µM
TGI (UO-31 renal): > 100 µM
TGI (OVCAR-5 ovarian): > 100 µM
TGI (NCI-H460 lung): > 100 µM
TGI (SN12C renal): > 100 µM
TGI (EKVX NSCLC): > 100 µM
TGI (UACC-257 melanoma): > 100 µM
TGI (SNB-19 CNS): > 100 µM
TGI (LOX IMVI melanoma): > 100 µM
TGI (TK-10 renal): > 100 µM
TGI (IGROV1 ovarian): > 100 µM
TGI (SK-MEL-2 melanoma): > 100 µM
TGI (K-562 leukemia): > 100 µM
TGI (CAKI-1 renal): > 100 µM
TGI (HL-60(TB) leukemia): 76.5 µM
TGI (RPMI-8226 leukemia): > 100 µM
TGI (OVCAR-3 ovarian): > 100 µM
TGI (HS 578T breast): > 100 µM
TGI (A549 NSCLC): > 100 µM
TGI (SF-539 CNS): > 100 µM
TGI (OVCAR-4 ovarian): > 100 µM
TGI (COLO 205 colon): > 100 µM
TGI (PC-3 prostate): > 100 µM
TGI (MDA-N): > 100 µM
TGI (SK-OV-3 ovarian): > 100 µM
TGI (T-47D breast): > 100 µM
TGI (SK-MEL-28 melanoma): > 100 µM
TGI (NCI-H522 lung): > 100 µM
TGI (MOLT-4 leukemia): > 100 µM
TGI (HT29 colon): > 100 µM
TGI (SF-295 CNS): > 100 µM
